A melting point compilation (Tetko et al.; mined from patent text by program, amines drawn as free bases though some values may be those of a salt)

Row | melting point | SMILES
1 | 131 to 132 °C | CCOc1nc(Cl)nc2c1oc1nc(-c3ccccc3)cc(C)c12
2 | 258 to 260 °C | N#CC(C(=O)Nc1ccccn1)C(=O)c1nn(-c2ccccc2)c2c1CSc1ccccc1-2 (stereo not drawn)
3 | 186 to 188 °C | Brc1cnc2c(Br)cncc2c1
4 | 125 to 134 °C | COC(=O)[C@@H](C)Nc1ncccc1NC(=O)c1ccc(Cl)cc1
5 | 168 to 169 °C | O=C(O)C1Cc2c(c(Cl)cc3c(-c4cccc(Cl)c4)noc23)O1 (stereo not drawn)
6 | 60 to 63 °C | Cc1ccc(S(=O)(=O)OCCc2ccc3[nH]cc(S(=O)(=O)c4ccccc4)c3c2)cc1
7 | 114 to 115 °C | Fc1ccc(-c2ncn(CCN3CCOCC3)c2-c2ccncc2)cc1
8 | 149 to 151 °C | COc1ccc(C(=O)c2sccc2OC2OC(COC(C)=O)C(OC(C)=O)C(OC(C)=O)C2OC(C)=O)cc1 (stereo not drawn)
9 | 127 to 129 °C | COC1(c2cc(F)cc(Sc3ccc(NC(C)=O)cc3)c2)CCN(CC(F)(F)F)C1 (stereo not drawn)
10 | 68 to 70 °C | CCCOc1ccc(-n2c(C(F)(F)F)nn(C)c2=S)cc1
11 | 128 °C | Cn1nc(-c2ccc(Cl)cc2Cl)cc1O
12 | > 300 °C | CCC1=C(C#N)C(c2cccc(Cl)c2Cl)c2c[nH]nc2N1 (stereo not drawn)
13 | 154 to 159 °C | CCOC(=O)C(=CNc1ncnc2ccc(N3CCN(C)CC3)cc12)C(=O)OCC
14 | 99 to 101 °C | CCOC(=O)Cn1c(-c2cc(Cl)ccn2)nc2cccnc21
15 | 74 to 75 °C | COc1c(C)cc(N=C=S)cc1C(=S)N(C)C
16 | 245 to 247 °C | COc1ccccc1NC(=O)Nc1nc(Nc2ccccc2-c2ccccc2)nc(N2CCCC(C(=O)O)C2)n1 (stereo not drawn)
17 | 285 °C | O=c1c2c(nc3ccc(-c4nnn[nH]4)cn13)CSC2
18 | 161 to 163 °C | Cn1nc(-c2c(Cl)cc(C(F)(F)F)cc2Cl)cc1N
19 | 37 to 38 °C | OCCCC#Cc1ccc2ccccc2c1
20 | 124 to 125 °C | CC(C)CC1(CCCCCl)C(=O)Nc2ccccc21 (stereo not drawn)
21 | 90 to 91 °C | O=[N+]([O-])c1ccc(C=Cc2ccc(N3CCOCCOCCOCCOCCOCC3)cc2)c([N+](=O)[O-])c1
22 | 83 to 86 °C | O[C@@H](COc1cccc(-c2noc3ccsc23)c1)CN1CCN(c2ccccc2Cl)CC1
23 | 213 to 214 °C | CC(=O)Oc1c2c(c3ccccc3c1OC(C)=O)N(C(C)=O)c1ccccc1S2
24 | 170 to 171 °C | CC1(C)CN(Cc2cc3ncccc3o2)c2nc(-c3ccncc3)cc(=O)n2C1

Row | melting point | SMILES
25 | 221 to 223 °C | CC(C)n1nc(-c2cc(C#N)c(C(N)=O)nc2-c2ccccc2)ccc1=O
26 | 38 to 40 °C | CC(=O)N(C(C)C(=O)NC(C)C(=O)OC(C)(C)C)C(CO)c1ccccc1 (stereo not drawn)
27 | 107 to 115 °C | Cc1[nH]c(C=O)c(C)c1C(=O)NCC1CCCCN1 (stereo not drawn)
28 | 116 to 118 °C | COc1ccc2c(c1)c(CC(=O)OCc1cccnc1)c(C)n2C(=O)c1ccc(Cl)cc1
29 | 176 °C | CCOC(=O)N1CCC(C(=O)O)=Cc2ccccc21
30 | 134 to 136 °C | CC(=O)Oc1c(C)cc(C(=O)Nc2c(CO)nc3c(C)cc(C)cc3c2-c2ccccc2Cl)cc1C
31 | 128 to 132 °C | CC(C)(C)NCC(COc1cccc2c1CC(=O)N2)OC(=O)C=Cc1ccccc1 (stereo not drawn)
32 | 145 to 146 °C | O=C(OCCN1CCCC1)c1c[nH]c2ccccc12
33 | 164 to 166 °C | O=c1c2c(nc3ccc(Br)cn13)C(=Cc1ccc(Cl)cc1Cl)CC2
34 | 119 °C | Cc1nc(-c2ccc(N3CC(CN4CCN(C(CC(=O)OCc5ccccc5)C(=O)OCc5ccccc5)CC4)OC3=O)cc2)no1 (stereo not drawn)
35 | 96 to 97 °C | C#CCC(C(=COC)c1cccnc1)c1ccc(Cl)cc1Cl (stereo not drawn)
36 | 66.5 to 67.5 °C | CC(=O)c1ccnnc1
37 | 153 to 156 °C | CC(=O)[NH+]([O-])C[C@@H]1CN(c2ccc(N3CCN(S(=O)(=O)CC#N)CC3)c(F)c2)C(=O)O1 (stereo partly drawn)
38 | 56 to 58 °C | COC(=O)C(O)c1ccc([N+](=O)[O-])cc1 (stereo not drawn)
39 | 161 to 162 °C | NC(=O)c1cc(F)cc(-c2ccc(F)c3cc(Cc4cccc(C(F)(F)F)c4)sc23)c1
40 | 126 to 127 °C | COCCCNC(=O)NC(=O)C(C#N)=NO
41 | 128 to 131 °C | CC(Oc1ccc(Cl)nc1Cl)C(=O)O (stereo not drawn)
42 | 125 to 127 °C | CCC(=O)OCc1nc(-c2ccc(OC)c(OC)c2)c2cc(OC)c(OC)cc2c1CC
43 | 222 to 225 °C | Cc1[nH]c(C(=O)C(Cl)(Cl)Cl)c2c1-c1ccc(Cl)cc1C(c1ccccc1F)=NC2
44 | 107 °C | CCOC(=O)C(CC)Sc1nc2c(c(=O)[nH]c(=O)n2C)n1Cc1cccc(N)c1 (stereo not drawn)
45 | 145 to 150 °C | CC(C)(C)OC(=O)NCC1CC(ON2C(=O)c3ccccc3C2=O)C1 (stereo not drawn)
46 | 82 °C | COC(=O)CCc1cc(C)cc(NC(C)=O)n1
47 | 158 to 160 °C | CCCCCCCCCCCCc1ccc(S(=O)(=O)Nc2nnc(CCCCCNC)s2)cc1
48 | 170 to 174 °C | COc1ccc(-c2cncc3cccc([N+](=O)[O-])c23)c(O)c1OC

Row | melting point | SMILES
49 | 114 to 116 °C | CCN(c1cc(Cl)ccc1C(=O)c1cnoc1C1CC1)S(C)(=O)=O
50 | 95 to 96 °C | COc1cc(CN2CCc3cc(OCc4ccccc4)c(OC)cc3C2)cc(OC)c1
51 | 192 to 193 °C | CCOc1ccc(-c2nc(-c3cccc(C(=O)O)c3)cs2)cc1OCC
52 | 60 to 62 °C | BrCCc1ccc2c(c1)CCO2
53 | 197 to 198 °C | CC(C)(C)OC(=O)C(C1NC(C(=O)OCc2ccccc2)C2(CCSCC2)S1)N1C(=O)c2ccccc2C1=O (stereo not drawn)
54 | 116 to 118 °C | NC(=O)c1cc(C(O)CN(Cc2ccccc2)Cc2ccccc2)cc2cc[nH]c12 (stereo not drawn)
55 | 169 to 170 °C | CNC(=O)C(CCn1c(COc2ccc(Cl)cc2)nc2c(C)cccc21)Cc1ccccc1 (stereo not drawn)
56 | 162 to 165 °C | CCc1nc2ccc(Cl)nc2n1Cc1ccc2oc(-c3ccccc3-c3nnn[nH]3)c(Br)c2c1
57 | 175 to 181 °C | Nc1ccc(Cl)cc1Cc1ccccc1F
58 | 129 to 130 °C | CC(C)(O)C1CCC(CNC(=O)c2cccnc2Oc2cccc(C#N)c2)CC1 (stereo not drawn)
59 | 209 to 211 °C | CC1=C(Cc2ncc[nH]2)CCc2ccccc21
60 | 135 to 137 °C | CCOC(=O)CCNC(=O)c1[nH]c(C)c(-c2nc3ccc(C(=O)c4ccccc4)cc3[nH]2)c1C
61 | 174 °C | O=S(=O)(NC1CCC(O)CC1)c1cccc2ccccc12 (stereo not drawn)
62 | 262 to 264 °C | COc1ccc(-c2nc(NC(C)=O)sc2-c2ccnc(NC(C)=O)c2)cc1
63 | 125 to 127 °C | CCCCC(Cc1ccc(OCCNC(=O)c2ccc(-c3ccc(CN(C)C)cc3)cc2)cc1)C(=O)O (stereo not drawn)
64 | 202 to 203 °C | NC(=O)CCCSc1nccc(NC(N)=NCC(F)(F)F)n1
65 | 166 °C | CSCc1cc(N)ccc1O
66 | 214 to 217 °C | c1ccc(Cc2nnc(Nc3cccc(-n4ccnc4)c3)c3ccccc23)cc1
67 | 115 to 117 °C | Fc1ccc(CN2CC=C(/C=C/c3ccccc3)CC2)cc1
68 | 243 to 245 °C | CC(=O)OC1(C(C)=O)CCC2C3CCC4=CC(=O)CCC4(C)C3CCC21C (stereo not drawn)
69 | 189 to 191 °C | CC1(C)Cc2c(N)c(Cl)cc(C(=O)NCCC34CCCN3CCC4)c2O1
70 | 176 to 178 °C | O=C1COc2ccc(-c3cccnc3-c3ccccc3)cc2N1
71 | 248 to 250 °C | O=C1c2ccccc2C(=O)N1Cc1noc(-c2ncn3c2[C@@H]2CCCN2C(=O)c2sccc2-3)n1
72 | 221 °C | COc1cc(O)c2c(=O)c(OC)c(-c3ccc(N)cc3)oc2c1

Row | melting point | SMILES
73 | 150 °C | CC1=NC(=Cc2cccc(-c3ccc(Cl)cc3)c2)C(=O)O1
74 | 210 to 211 °C | CCC(CC)CNC(=O)c1ccc2cccc(Cc3ccc(C(=O)NS(=O)(=O)c4ccccc4)cc3OC)c2c1
75 | 68 to 71 °C | C=CC(=O)OCCSc1ccc2sc3ccccc3c(=O)c2c1
76 | 285 to 290 °C | CC12CCC3c4ccc(C(=O)O)cc4CCC3C1CCC2C(=O)CCc1ccc(C(=O)O)cc1 (stereo not drawn)
77 | 160 to 161 °C | CC(C)(C)OC(=O)CCc1ccc(-c2nc(=O)c3ccccc3s2)nc1
78 | 185 to 187 °C | CCOC(=O)c1c(CN2C(=O)CN(C)C2=O)nc2sc3c(c2c1-c1ccc(OC)c(OC)c1)CCN(C(=O)c1ccccc1)C3
79 | 45 °C | O=S(=O)(CC=Cc1ccccc1)CCCOC1CCCCO1 (stereo not drawn)
80 | 148 to 150 °C | CCCc1nc(S(=O)(=O)Nc2c(F)cccc2F)nn1-c1ccccc1
81 | 238 to 240 °C | O=C1CC(c2cccc(-c3nc(CO)cs3)c2)=Nc2ccc(-n3cccc3)cc2N1
82 | 200 to 201 °C | O=C(NC(=O)c1ccc2ncccc2c1)NC1CCN(Cc2ccc3cc(F)ccc3c2)CC1
83 | 108 to 110 °C | CCCCN(CCCOc1ccc(S(=O)(=O)c2c(C(C)C)cn3ccccc23)cc1)C(C)c1ccc(OC)c(OC)c1 (stereo not drawn)
84 | 154 to 156 °C | N#Cc1ccc(C2=Nc3ccccc3C(=O)C2=Cc2ccncc2)cc1
85 | 58 to 60 °C | CC1(C)COC(C(=O)O)OC1
86 | 43 to 45 °C | Fc1ccc(C(=Cc2ccccc2)C(F)(F)F)cc1
87 | 318 to 320 °C | COc1ccccc1-n1c(=O)[nH]c2c(C(N)=O)nc(-c3ccncc3)nc21
88 | 177 to 178 °C | Nc1nc2[nH]c(CCC#Cc3ccsc3C(=O)N[C@@H](CCC(=O)O)C(=O)O)cc2c(=O)[nH]1
89 | 189 to 192 °C | CC(C)C1(C)N=C(c2nc3c(cc2C(=O)O)CCO3)NC1=O (stereo not drawn)
90 | 113 to 116 °C | COc1ccc(-c2cc(Cl)c3ccccc3n2)cc1Cl
91 | 69 to 70 °C | CN(C)c1ccc(OCC(=O)c2cccc(Cl)c2)cc1
92 | 215 °C | Cc1nc(N)nc(N)c1CCCc1cc(Cl)c(Cl)cc1Cl
93 | 180 to 184 °C | Cc1ccc(C=CCN2CCc3nc(N)sc3CC2)cn1
94 | 127 to 129 °C | CCCc1c(OCCCCCC(=O)c2cc(OC)c(OC)cc2F)ccc(C(=O)OC)c1O
95 | 138 to 144 °C | COc1ccc(N2CCN(c3ccc(OC)nc3-c3ccc(C(C)(C)O)cc3)CC2)cc1
96 | 125 to 127 °C | CCCCCC(=O)NCCCC(=NNC(N)=S)c1ccccc1

Row | SMILES | melting point
97 | O=C1c2ccccc2-n2cncc2[C@@H]2CCCN12 | 211 to 212 °C
98 | CN1CC(CN2CC(=O)NC2=O)=CC2c3cccc4[nH]cc(c34)CC21 (stereo not drawn) | 204 to 206 °C
